Experimental data as given in ChEMBL document CHEMBL3991601, “The target landscape of clinical kinase drugs” (Science, 2017).
The source made the active and inactive calls.

Experiments:
[1] = target: T1, Breakpoint cluster region protein (Homo sapiens, UniProt P11274)
T1 sequence (P11274 whole entry): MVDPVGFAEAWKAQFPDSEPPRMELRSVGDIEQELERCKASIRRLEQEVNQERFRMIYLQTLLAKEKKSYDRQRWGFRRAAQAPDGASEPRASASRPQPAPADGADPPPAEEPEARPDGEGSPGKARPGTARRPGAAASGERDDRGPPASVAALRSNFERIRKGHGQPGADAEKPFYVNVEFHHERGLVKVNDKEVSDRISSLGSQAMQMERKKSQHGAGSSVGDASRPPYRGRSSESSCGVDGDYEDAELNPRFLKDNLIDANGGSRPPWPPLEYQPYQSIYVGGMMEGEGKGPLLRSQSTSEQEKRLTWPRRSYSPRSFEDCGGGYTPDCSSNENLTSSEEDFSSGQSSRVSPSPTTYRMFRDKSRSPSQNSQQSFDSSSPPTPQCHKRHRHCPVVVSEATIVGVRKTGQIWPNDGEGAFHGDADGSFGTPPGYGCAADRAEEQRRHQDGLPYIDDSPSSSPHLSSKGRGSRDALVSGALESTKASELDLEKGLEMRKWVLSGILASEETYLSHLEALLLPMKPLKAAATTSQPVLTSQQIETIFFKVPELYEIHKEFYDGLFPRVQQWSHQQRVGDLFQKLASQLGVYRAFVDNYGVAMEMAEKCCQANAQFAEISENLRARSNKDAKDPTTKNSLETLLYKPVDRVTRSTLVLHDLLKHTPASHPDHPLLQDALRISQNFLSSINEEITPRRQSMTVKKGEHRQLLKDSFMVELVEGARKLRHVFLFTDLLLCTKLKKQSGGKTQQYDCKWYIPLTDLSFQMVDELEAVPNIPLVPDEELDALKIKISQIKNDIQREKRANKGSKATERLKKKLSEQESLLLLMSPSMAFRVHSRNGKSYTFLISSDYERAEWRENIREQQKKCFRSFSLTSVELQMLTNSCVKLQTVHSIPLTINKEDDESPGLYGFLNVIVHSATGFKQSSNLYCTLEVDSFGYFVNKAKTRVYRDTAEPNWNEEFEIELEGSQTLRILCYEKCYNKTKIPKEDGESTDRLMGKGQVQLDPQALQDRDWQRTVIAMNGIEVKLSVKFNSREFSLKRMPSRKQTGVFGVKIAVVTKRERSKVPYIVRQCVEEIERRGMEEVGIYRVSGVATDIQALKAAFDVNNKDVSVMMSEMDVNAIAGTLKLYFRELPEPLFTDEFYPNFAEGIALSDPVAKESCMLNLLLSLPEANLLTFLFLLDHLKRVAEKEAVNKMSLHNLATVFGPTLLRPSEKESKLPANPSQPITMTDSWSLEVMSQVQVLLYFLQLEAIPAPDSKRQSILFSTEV

[2] = target: Tyrosine-protein kinase FRK (Homo sapiens, UniProt P42685)
Chain of Tyrosine-protein kinase FRK (P42685 whole entry): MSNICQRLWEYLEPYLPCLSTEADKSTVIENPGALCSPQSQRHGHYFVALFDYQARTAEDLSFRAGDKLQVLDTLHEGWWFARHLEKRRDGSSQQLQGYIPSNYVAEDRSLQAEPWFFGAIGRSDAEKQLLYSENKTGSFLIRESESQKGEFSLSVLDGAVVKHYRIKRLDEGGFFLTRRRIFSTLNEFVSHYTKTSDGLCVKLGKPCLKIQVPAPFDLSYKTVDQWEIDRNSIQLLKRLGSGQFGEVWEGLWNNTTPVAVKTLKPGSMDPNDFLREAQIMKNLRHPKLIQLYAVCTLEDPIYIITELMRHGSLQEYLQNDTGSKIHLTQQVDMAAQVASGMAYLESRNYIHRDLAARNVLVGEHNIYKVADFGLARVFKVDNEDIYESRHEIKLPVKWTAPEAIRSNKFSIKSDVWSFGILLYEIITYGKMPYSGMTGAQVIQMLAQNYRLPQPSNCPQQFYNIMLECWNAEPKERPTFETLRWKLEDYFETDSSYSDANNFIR

[3] = target: T2, Interleukin-1 receptor-associated kinase 4 (Homo sapiens, UniProt Q9NWZ3)
T2 sequence (Q9NWZ3 whole entry): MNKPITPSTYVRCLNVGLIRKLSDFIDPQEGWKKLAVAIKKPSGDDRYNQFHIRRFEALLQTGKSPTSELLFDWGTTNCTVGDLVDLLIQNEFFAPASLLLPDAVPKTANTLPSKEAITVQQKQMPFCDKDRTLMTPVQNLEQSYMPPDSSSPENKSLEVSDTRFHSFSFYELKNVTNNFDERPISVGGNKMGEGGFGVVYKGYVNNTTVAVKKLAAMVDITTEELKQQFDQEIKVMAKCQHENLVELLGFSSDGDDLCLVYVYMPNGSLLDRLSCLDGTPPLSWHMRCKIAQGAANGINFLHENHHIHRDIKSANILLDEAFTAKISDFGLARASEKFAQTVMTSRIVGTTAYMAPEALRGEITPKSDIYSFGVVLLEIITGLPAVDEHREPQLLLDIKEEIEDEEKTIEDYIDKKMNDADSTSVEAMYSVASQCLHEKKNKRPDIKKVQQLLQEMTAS

[4] = target: Tyrosine-protein kinase Lyn (Homo sapiens, UniProt P07948)
Chain of Tyrosine-protein kinase Lyn (P07948 whole entry): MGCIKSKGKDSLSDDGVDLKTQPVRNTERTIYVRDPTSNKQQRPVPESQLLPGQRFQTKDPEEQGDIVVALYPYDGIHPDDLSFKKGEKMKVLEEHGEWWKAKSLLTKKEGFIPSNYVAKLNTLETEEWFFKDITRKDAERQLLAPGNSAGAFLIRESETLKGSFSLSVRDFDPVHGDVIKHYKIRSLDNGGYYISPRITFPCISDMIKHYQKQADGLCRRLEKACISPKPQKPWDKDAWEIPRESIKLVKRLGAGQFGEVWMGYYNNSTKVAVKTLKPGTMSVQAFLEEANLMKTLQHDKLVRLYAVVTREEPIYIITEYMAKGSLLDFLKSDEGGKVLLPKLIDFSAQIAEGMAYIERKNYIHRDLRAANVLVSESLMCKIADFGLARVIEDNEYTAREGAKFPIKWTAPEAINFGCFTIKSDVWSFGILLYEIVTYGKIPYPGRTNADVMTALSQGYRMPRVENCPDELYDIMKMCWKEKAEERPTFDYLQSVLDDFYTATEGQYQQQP

[5] = target: Mitogen-activated protein kinase 1 (Homo sapiens, UniProt P28482)
Chain of Mitogen-activated protein kinase 1 (P28482 whole entry): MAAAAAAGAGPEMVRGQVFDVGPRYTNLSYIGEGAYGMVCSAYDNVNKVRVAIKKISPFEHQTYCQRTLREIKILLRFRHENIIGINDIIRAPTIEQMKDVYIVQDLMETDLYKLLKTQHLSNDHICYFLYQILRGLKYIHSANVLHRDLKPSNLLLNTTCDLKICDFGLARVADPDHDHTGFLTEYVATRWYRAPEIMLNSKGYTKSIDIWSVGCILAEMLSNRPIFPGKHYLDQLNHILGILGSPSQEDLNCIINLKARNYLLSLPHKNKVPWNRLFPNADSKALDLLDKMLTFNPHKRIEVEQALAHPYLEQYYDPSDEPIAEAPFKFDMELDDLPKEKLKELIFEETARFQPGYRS

Myosin-14 = Myosin-14 (Homo sapiens, UniProt Q7Z406)
Chain of Myosin-14 (Q7Z406 whole entry): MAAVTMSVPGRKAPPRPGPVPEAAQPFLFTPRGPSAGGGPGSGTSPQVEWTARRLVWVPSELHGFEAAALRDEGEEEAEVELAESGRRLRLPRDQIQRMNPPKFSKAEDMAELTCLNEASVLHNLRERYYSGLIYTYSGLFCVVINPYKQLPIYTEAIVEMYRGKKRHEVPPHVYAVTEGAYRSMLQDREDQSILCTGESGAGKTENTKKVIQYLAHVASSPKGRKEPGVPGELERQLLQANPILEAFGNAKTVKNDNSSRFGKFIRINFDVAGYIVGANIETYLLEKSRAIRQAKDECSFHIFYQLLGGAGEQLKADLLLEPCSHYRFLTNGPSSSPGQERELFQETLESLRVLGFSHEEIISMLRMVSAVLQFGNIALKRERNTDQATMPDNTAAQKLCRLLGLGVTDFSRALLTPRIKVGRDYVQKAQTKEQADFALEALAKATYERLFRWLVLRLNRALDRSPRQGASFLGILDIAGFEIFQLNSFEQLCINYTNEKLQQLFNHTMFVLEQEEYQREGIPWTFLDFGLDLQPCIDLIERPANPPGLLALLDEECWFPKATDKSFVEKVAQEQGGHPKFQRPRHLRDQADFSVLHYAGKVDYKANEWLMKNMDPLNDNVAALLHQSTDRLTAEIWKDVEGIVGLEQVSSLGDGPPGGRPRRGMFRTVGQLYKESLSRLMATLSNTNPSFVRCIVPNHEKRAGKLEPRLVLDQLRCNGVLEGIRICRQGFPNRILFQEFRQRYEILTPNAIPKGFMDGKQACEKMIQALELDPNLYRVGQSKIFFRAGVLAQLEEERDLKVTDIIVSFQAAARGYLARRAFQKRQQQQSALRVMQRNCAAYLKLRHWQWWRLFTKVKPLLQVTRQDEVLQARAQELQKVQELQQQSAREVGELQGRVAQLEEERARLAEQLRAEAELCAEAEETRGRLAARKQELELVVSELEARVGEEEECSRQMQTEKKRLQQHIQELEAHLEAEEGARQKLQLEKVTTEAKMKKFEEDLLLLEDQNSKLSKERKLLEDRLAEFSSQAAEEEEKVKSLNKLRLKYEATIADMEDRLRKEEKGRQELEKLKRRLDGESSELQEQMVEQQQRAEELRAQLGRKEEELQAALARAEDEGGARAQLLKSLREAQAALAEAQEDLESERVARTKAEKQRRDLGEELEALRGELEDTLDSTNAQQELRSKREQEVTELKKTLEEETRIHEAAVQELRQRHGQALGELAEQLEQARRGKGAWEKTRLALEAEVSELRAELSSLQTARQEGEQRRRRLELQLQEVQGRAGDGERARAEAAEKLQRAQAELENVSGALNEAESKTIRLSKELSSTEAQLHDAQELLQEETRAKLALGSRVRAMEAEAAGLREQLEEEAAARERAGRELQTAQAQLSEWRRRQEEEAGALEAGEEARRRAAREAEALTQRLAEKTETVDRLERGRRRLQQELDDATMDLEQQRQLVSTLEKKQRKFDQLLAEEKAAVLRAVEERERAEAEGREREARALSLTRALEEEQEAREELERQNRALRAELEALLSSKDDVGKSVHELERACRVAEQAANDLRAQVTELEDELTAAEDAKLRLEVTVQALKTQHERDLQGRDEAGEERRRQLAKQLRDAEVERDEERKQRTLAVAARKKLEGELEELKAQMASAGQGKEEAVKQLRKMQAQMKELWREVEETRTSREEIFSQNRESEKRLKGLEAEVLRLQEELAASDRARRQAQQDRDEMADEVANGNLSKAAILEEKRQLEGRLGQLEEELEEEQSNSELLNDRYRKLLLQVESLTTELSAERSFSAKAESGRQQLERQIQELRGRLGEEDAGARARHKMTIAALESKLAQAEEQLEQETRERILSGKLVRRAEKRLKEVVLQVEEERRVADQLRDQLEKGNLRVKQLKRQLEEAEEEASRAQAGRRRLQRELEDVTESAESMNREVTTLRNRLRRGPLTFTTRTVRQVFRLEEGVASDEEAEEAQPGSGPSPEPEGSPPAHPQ

[6] = target: NADH dehydrogenase [ubiquinone] 1 alpha subcomplex subunit 13 (Homo sapiens, UniProt Q9P0J0)
Chain of NADH dehydrogenase [ubiquinone] 1 alpha subcomplex subunit 13 (Q9P0J0 whole entry, one chain of several): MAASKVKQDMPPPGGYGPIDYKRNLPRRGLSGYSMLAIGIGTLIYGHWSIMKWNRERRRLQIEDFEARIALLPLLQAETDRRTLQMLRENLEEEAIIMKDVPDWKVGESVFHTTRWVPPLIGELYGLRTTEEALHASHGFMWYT

Obg-like ATPase 1 = Obg-like ATPase 1 (Homo sapiens, UniProt Q9NTK5)
Chain of Obg-like ATPase 1 (Q9NTK5 whole entry, looked up): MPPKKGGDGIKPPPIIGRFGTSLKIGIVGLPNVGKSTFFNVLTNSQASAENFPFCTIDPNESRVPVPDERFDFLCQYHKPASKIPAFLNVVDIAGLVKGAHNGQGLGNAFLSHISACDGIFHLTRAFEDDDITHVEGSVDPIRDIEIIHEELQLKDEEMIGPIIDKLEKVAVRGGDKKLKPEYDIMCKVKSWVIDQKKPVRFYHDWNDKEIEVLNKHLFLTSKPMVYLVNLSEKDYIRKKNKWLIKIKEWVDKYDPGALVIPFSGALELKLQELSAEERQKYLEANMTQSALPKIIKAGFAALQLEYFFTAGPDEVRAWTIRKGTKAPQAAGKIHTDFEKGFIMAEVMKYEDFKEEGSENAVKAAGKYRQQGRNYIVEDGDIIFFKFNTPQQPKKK

[7] = target: T3, Glycogen phosphorylase, brain form (Homo sapiens, UniProt P11216)
T3 sequence (P11216 whole entry): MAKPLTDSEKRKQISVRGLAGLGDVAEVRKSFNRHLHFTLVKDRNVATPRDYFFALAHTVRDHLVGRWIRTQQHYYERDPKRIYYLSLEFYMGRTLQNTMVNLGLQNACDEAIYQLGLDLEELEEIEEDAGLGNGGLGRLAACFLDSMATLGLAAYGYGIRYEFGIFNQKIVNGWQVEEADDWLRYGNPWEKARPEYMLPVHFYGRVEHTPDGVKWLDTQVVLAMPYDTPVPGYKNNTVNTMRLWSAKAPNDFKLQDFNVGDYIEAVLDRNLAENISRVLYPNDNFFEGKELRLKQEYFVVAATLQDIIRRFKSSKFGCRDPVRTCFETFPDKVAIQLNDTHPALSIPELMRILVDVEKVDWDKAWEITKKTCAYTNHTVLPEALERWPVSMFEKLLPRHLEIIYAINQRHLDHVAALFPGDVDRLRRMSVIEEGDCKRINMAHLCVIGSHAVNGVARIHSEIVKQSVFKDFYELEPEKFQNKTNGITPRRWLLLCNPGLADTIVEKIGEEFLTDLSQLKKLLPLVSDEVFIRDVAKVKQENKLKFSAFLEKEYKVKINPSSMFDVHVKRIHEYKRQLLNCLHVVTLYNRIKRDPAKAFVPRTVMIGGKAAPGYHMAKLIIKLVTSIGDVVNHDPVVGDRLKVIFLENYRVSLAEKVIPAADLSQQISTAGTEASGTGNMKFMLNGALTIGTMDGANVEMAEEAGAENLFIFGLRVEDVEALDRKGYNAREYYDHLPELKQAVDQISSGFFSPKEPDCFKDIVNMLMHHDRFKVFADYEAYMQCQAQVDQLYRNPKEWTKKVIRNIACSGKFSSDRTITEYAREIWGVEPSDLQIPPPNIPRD
Note: in the data inactive means no Kd found up to 30 µM.

Compound: COc1cc2nccc(Oc3ccc(NC(=O)C4(C(=O)Nc5ccc(F)cc5)CC4)cc3)c2cc1OC [CABOZANTINIB]
- Kd [1]: 0.342 µM (active)
- Kd [2]: 0.56 µM (active)
- Kd [3]: > 30 µM (inactive)
- Kd [4]: 1.33 µM (active)
- Kd [5]: > 30 µM (inactive)
- Kd (Myosin-14): > 30 µM (inactive)
- Kd [6]: > 30 µM (inactive)
- Kd (Obg-like ATPase 1): > 30 µM (inactive)
- Kd [7]: > 30 µM (inactive)

Compound: CN(c1ncccc1CNc1nc(Nc2ccc3c(c2)CC(=O)N3)ncc1C(F)(F)F)S(C)(=O)=O [PF-00562271]
- Kd [1]: > 30 µM (inactive)
- Kd [5]: 1.24 µM (active)
- Kd (Myosin-14): > 30 µM (inactive)
- Kd [6]: > 30 µM (inactive)
- Kd (Obg-like ATPase 1): > 30 µM (inactive)
- Kd [7]: > 30 µM (inactive)

Compound: CNC(=O)c1cc(COc2nnc(Nc3ccc(Cl)cc3)c3ccoc23)ccn1 [TELATINIB]
- Kd [1]: > 30 µM (inactive)
- Kd [2]: > 30 µM (inactive)
- Kd [3]: > 30 µM (inactive)
- Kd [4]: > 30 µM (inactive)
- Kd [5]: > 30 µM (inactive)
- Kd [6]: > 30 µM (inactive)
- Kd (Obg-like ATPase 1): > 30 µM (inactive)
- Kd [7]: > 30 µM (inactive)

Compound: Cn1c(=O)c(F)c(Nc2ccc(I)cc2F)c2c(=O)n(C[C@@H](O)CO)cnc21 [TAK-733]
- Kd [1]: > 30 µM (inactive)
- Kd [2]: > 30 µM (inactive)
- Kd [3]: > 30 µM (inactive)
- Kd [4]: > 30 µM (inactive)
- Kd [5]: > 30 µM (inactive)
- Kd (Myosin-14): > 30 µM (inactive)
- Kd (Obg-like ATPase 1): > 30 µM (inactive)
- Kd [7]: > 30 µM (inactive)

Compound: N#CCNC(=O)c1ccc(-c2ccnc(Nc3ccc(N4CCOCC4)cc3)n2)cc1 [MOMELOTINIB]
- Kd [1]: > 30 µM (inactive)
- Kd [2]: > 30 µM (inactive)
- Kd [3]: > 30 µM (inactive)
- Kd [5]: > 30 µM (inactive)
- Kd (Myosin-14): > 30 µM (inactive)
- Kd [6]: > 30 µM (inactive)
- Kd (Obg-like ATPase 1): > 30 µM (inactive)
- Kd [7]: > 30 µM (inactive)

Compound: Cc1c(NC(=O)OC[C@@H]2COCCN2)cn2ncnc(Nc3ccc4c(cnn4Cc4cccc(F)c4)c3)c12 [AC-480]
- Kd [1]: > 30 µM (inactive)
- Kd [2]: > 30 µM (inactive)
- Kd [3]: > 30 µM (inactive)
- Kd [4]: > 30 µM (inactive)
- Kd [5]: > 30 µM (inactive)
- Kd (Myosin-14): > 30 µM (inactive)
- Kd (Obg-like ATPase 1): > 30 µM (inactive)
- Kd [7]: > 30 µM (inactive)

Compound: COCCN1CCN(Cc2ccc(-c3n[nH]c4c3C(=O)c3c(NC(=O)NN5CCOCC5)cccc3-4)cc2)CC1 [RGB-286638]
- Kd [1]: 1.24 µM (active)
- Kd [2]: > 30 µM (inactive)
- Kd [3]: > 30 µM (inactive)
- Kd [4]: > 30 µM (inactive)
- Kd [5]: > 30 µM (inactive)
- Kd [6]: > 30 µM (inactive)
- Kd (Obg-like ATPase 1): > 30 µM (inactive)
- Kd [7]: > 30 µM (inactive)

Compound: CCOc1ccn(-c2ccc(F)cc2)c(=O)c1C(=O)Nc1ccc(Oc2ccnc(N)c2Cl)c(F)c1 [BMS-777607]
- Kd [1]: > 30 µM (inactive)
- Kd [2]: 0.33 µM (active)
- Kd [3]: > 30 µM (inactive)
- Kd [4]: > 30 µM (inactive)
- Kd [5]: > 30 µM (inactive)
- Kd (Obg-like ATPase 1): > 30 µM (inactive)

Compound: O=S(=O)(c1cccc2cnccc12)N1CCCNCC1 [FASUDIL]
- Kd [1]: > 30 µM (inactive)
- Kd [2]: > 30 µM (inactive)
- Kd [4]: > 30 µM (inactive)
- Kd (Myosin-14): > 30 µM (inactive)
- Kd [6]: > 30 µM (inactive)
- Kd (Obg-like ATPase 1): > 30 µM (inactive)
- Kd [7]: > 30 µM (inactive)

Compound: CC1(COc2ccc3c(c2)ncn3-c2ccc3cccc(N4CCC(N)CC4)c3n2)COC1 [CRENOLANIB]
- Kd [1]: > 30 µM (inactive)
- Kd [2]: > 30 µM (inactive)
- Kd [4]: > 30 µM (inactive)
- Kd [5]: > 30 µM (inactive)
- Kd (Myosin-14): > 30 µM (inactive)
- Kd [6]: > 30 µM (inactive)
- Kd (Obg-like ATPase 1): 0.007 µM
- Kd [7]: > 30 µM (inactive)

Compound: O=S(=O)(c1cccc2c(O)nccc12)N1CCCNCC1 [HYDROXYFASUDIL]
- Kd [1]: > 30 µM (inactive)
- Kd [2]: > 30 µM (inactive)
- Kd [3]: > 30 µM (inactive)
- Kd [4]: > 30 µM (inactive)
- Kd (Myosin-14): > 30 µM (inactive)
- Kd [6]: > 30 µM (inactive)
- Kd (Obg-like ATPase 1): > 30 µM (inactive)
- Kd [7]: > 30 µM (inactive)

Compound: CC(C)CC(=O)Nc1[nH]nc2c1CN(C(=O)C1CCN(C)CC1)C2(C)C [PHA-793887]
- Kd [1]: > 30 µM (inactive)
- Kd [2]: > 30 µM (inactive)
- Kd [3]: > 30 µM (inactive)
- Kd [4]: > 30 µM (inactive)
- Kd (Myosin-14): > 30 µM (inactive)
- Kd [6]: > 30 µM (inactive)
- Kd (Obg-like ATPase 1): > 30 µM (inactive)
- Kd [7]: > 30 µM (inactive)
